Columns and labels:
CYPIR (Cyperus iria) = assay: Flooded paddy, preemergence weed control; assay type: in vivo; details: rate 0.1250 kg/ha, rated 3-4 weeks after treatment, 0-9 rating scale
Experimental: (§1) Results of herbicide evaluation are expressed on a rating scale (0-9). The scale is based upon a visual observation of plant stand, vigor, malformation, size, chlorosis and overall plant appearance as compared with a control.
(§2) Preemergence herbicidal activity under flooded paddy conditions is determined as follows: plant seeds or propagating organs are planted in the top 0.5 cm of silt loam soil in 32 oz. plastic containers with a diameter of 10.5 cm and no drainage holes. Water is added to these containers and maintained at 1.5 to 3 cm above the soil surface for the duration of the experiment. […] The treated containers are placed on greenhouse benches and cared for in accordance with conventional greenhouse procedures.

ZEAMX (Corn, Field) [1] = assay: Preemergence herbicidal evaluation; assay type: in vivo, Zea mays, L.; details: Rate 0.2500 kg/ha; preemergence; rated 4-5 weeks after treatment
Text: as §1
(§3) The preemergence herbicidal activity of the test compounds of the present invention is exemplified by the following tests in which the seeds of a variety of monocotyledonous and dicotyledonous plants are separately mixed with potting soil and planted on top of approximately one inch of soil in separate pint cups. […] The treated cups are then placed on greenhouse benches, watered and cared for in accordance with conventional greenhouse procedures. From four to five weeks after treatment, the tests are terminated and each cup is examined and rated according to the rating system provided in Example 87. The plant species used and the compounds evaluated are the same as those shown in Example 87.

SETVI (Setaria viridis) [2] = assay: Postemergence herbicidal evaluation; assay type: in vivo, (L.) Beau; details: rate 0.0620 kg/ha
Experimental: In the tests, seedling plants are grown in jiffy flats for about two weeks. The test compounds are dispersed in 50/50 acetone/water mixtures containing 0.5% TWEEN® 20, a polyoxyethylene sorbitan monolaurate surfactant of Atlas Chemical Industries, in sufficient quantities to provide the equivalent of about 0.0040 kg to 1.000 kg per hectare of active compound when applied to the plants through a spray nozzle operating at 40 psi for a predetermined time. After spraying, the plants are placed on greenhouse benches and are cared for in accordance with conventional greenhouse procedures. From four to five weeks after treatment, the seedling plants are examined and rated according to the rating system set forth below. Where more than one test is involved for a given compound, the data are averaged.
as §1

[3] = system: IPOHE (Ipomoea hederacea); assay: Postemergence herbicidal evaluation; assay type: in vivo, (L.) Jacq.; details: rate 0.0620 kg/ha
Experimental: (§4) In the tests, seedling plants are grown in jiffy flats for about two weeks. […] After spraying, the plants are placed on greenhouse benches and are cared for in accordance with conventional greenhouse procedures. From four to five weeks after treatment, the seedling plants are examined and rated according to the rating system set forth below. Where more than one test is involved for a given compound, the data are averaged.
as §1

[4] = system: GLXMAW (Soybean, Williams); assay: Preemergence herbicidal evaluation; assay type: in vivo, Glycine max, (L.) Merr. cv Williams; details: Rate 0.2500 kg/ha; preemergence; rated 4-5 weeks after treatment
Text: as §1, §3

[5] = system: ECHORC (Echinochloa oryzoides); assay: Flooded paddy, preemergence weed control; assay type: in vivo, Echinochloa oryzoides (Ard.) Fritsch.; details: rate 0.1250 kg/ha, rated 3-4 weeks after treatment, 0-9 rating scale
Experimental: as §1, §2

[6] = system: TRZAWR (Wheat, Winter, cv Riband); assay: Postemergence herbicidal evaluation; assay type: in vivo, Triticum aestivum; details: rate 0.0620 kg/ha
Experimental: as §4, §1

ZEAMX (Corn, Field) [7] = assay: Postemergence herbicidal evaluation; assay type: in vivo, Zea mays, L.; details: rate 0.0620 kg/ha
Experimental: as §4, §1

[8] = system: ABUTH (Abutilon theophrasti); assay: Preemergence herbicidal evaluation; assay type: in vivo, Medic.; details: Rate 0.2500 kg/ha; preemergence; rated 4-5 weeks after treatment
Text: as §1, §3

[9] = system: CYPSE (Cyperus serotinus); assay: Flooded paddy, preemergence weed control; assay type: in vivo, Rottb.; details: rate 0.1250 kg/ha, rated 3-4 weeks after treatment, 0-9 rating scale
Experimental: as §1
Preemergence herbicidal activity under flooded paddy conditions is determined as follows: plant seeds or propagating organs are planted in the top 0.5 cm of silt loam soil in 32 oz. plastic containers with a diameter of 10.5 cm and no drainage holes. Water is added to these containers and maintained at 1.5 to 3 cm above the soil surface for the duration of the experiment. The test compounds are applied as aqueous/acetone mixtures 50/50 v/v pipetted directly into the flood water to give the equivalent of about 0.0080 to 0.1250 kg/ha of active ingredient. The treated containers are placed on greenhouse benches and cared for in accordance with conventional greenhouse procedures. Three to four weeks after treatment, the test is terminated and each container is examined and herbicidal effect rated according to the rating system provided in Example 87.

ORYSAT (Rice, Tebonnet) [10] = assay: Preemergence herbicidal evaluation; assay type: in vivo, Oryza sativa, (L.) Tebonnet; details: Rate 0.2500 kg/ha; preemergence; rated 4-5 weeks after treatment
Text: as §1, §3

[11] = system: IPOHE (Ipomoea hederacea); assay: Preemergence herbicidal evaluation; assay type: in vivo, (L.) Jacq.; details: Rate 0.2500 kg/ha; preemergence; rated 4-5 weeks after treatment
Text: as §1, §3

ORYSAT (Rice, Tebonnet) [12] = assay: Flooded paddy, post-transplant rice tolerance; assay type: in vivo, Oryza sativa, (L.) Tebonnet; details: in vivo
Experimental: as §1
The tolerance of transplanted rice to post-transplanted herbicide application is determined as follows: two ten-day-old rice seedlings (cv. Tebonnet) are transplanted into silt loam soil in 32 oz. plastic containers with a diameter of 10.5 cm and no drainage holes. After transplanting, the containers are flooded and the water level is maintained at 1.5 to 3 cm above the soil surface. […] The treated containers are placed on greenhouse benches, watered such that the water level is maintained as stated above, and cared for in accordance with conventional greenhouse procedures.

[13] = system: ECHCG (Echinochloa crus-galli); assay: Preemergence herbicidal evaluation; assay type: in vivo, (L.) Beau; details: Rate 0.2500 kg/ha; preemergence; rated 4-5 weeks after treatment
Text: as §1, §3

SETVI (Setaria viridis) [14] = assay: Preemergence herbicidal evaluation; assay type: in vivo, (L.) Beau; details: Rate 0.2500 kg/ha; preemergence; rated 4-5 weeks after treatment
Text: as §1, §3

[15] = system: ECHCG (Echinochloa crus-galli); assay: Postemergence herbicidal evaluation; assay type: in vivo, (L.) Beau; details: rate 0.0620 kg/ha
Experimental: as §4, §1

[16] = system: ABUTH (Abutilon theophrasti); assay: Postemergence herbicidal evaluation; assay type: in vivo, Medic.; details: rate 0.0620 kg/ha
Experimental: as §4, §1

[17] = system: AMBEL (Ambrosia artemisifolia); assay: Preemergence herbicidal evaluation; assay type: in vivo, L.; details: Rate 0.2500 kg/ha; preemergence; rated 4-5 weeks after treatment
Text: as §1, §3

[18] = system: CHEAL (Chenopodium album); assay: Preemergence herbicidal evaluation; assay type: in vivo, L.; details: Rate 0.2500 kg/ha; preemergence; rated 4-5 weeks after treatment
Text: as §1, §3

[19] = system: CASOB (Cassia obtusifolia); assay: Preemergence herbicidal evaluation; assay type: in vivo, L.; details: Rate 0.2500 kg/ha; preemergence; rated 4-5 weeks after treatment
Text: as §1, §3

[20] = system: TRZAWR (Wheat, Winter, cv Riband); assay: Preemergence herbicidal evaluation; assay type: in vivo, Triticum aestivum; details: Rate 0.2500 kg/ha; preemergence; rated 4-5 weeks after treatment
Text: as §1, §3

ORYSAT (Rice, Tebonnet) [21] = assay: Postemergence herbicidal evaluation; assay type: in vivo, Oryza sativa, (L.) Tebonnet; details: rate 0.0620 kg/ha
Experimental: as §4, §1

[22] = system: GLXMAW (Soybean, Williams); assay: Postemergence herbicidal evaluation; assay type: in vivo, Glycine max, (L.) Merr. cv Williams; details: rate 0.0620 kg/ha
Experimental: as §4, §1

[23] = system: SAGPY (Sagittaria pygmaea); assay: Flooded paddy, preemergence weed control; assay type: in vivo, L.; details: rate 0.1250 kg/ha, rated 3-4 weeks after treatment, 0-9 rating scale
Experimental: as §1, §2

GALAP (Galium aparine) [24] = assay: Postemergence herbicidal evaluation; assay type: in vivo; details: rate 0.0620 kg/ha
Experimental: as §4, §1

GALAP (Galium aparine) [25] = assay: Preemergence herbicidal evaluation; assay type: in vivo; details: Rate 0.2500 kg/ha; preemergence; rated 4-5 weeks after treatment
Text: as §1, §3

[26] = system: AMBEL (Ambrosia artemisifolia); assay: Postemergence herbicidal evaluation; assay type: in vivo, L.; details: rate 0.0620 kg/ha
Experimental: as §4, §1

[27] = system: CASOB (Cassia obtusifolia); assay: Postemergence herbicidal evaluation; assay type: in vivo, L.; details: rate 0.0620 kg/ha
Experimental: as §4, §1

Compound: Cn1c(C(F)(F)F)cc(=O)n(-c2ccc3c(c2)C(c2cccc[n+]2[O-])=NS3(=O)=O)c1=O [Compound 15, 1-methyl-3-[3-(2-pyridyl)-1,2-benzisothiazol-5-yl]-6-(trifluoromethyl)uracil N′,S,S-trioxide]
- herbicidal rating, CYPIR (CYPIR (Cyperus iria)): 0.0
- ZEAMX preemergence herbicidal rating (ZEAMX (Corn, Field) [1]): 1.0
- Postemergence herbicidal rating, SETVI (SETVI (Setaria viridis) [2]): 1.0
- Postemergence herbicidal rating, IPOHE [3]: 9.0
- GLXMAW preemergence herbicidal rating [4]: 2.0
- herbicidal rating, ECHORC [5]: 0.0
- Postemergence herbicidal rating, TRZAWR [6]: 3.5
- Postemergence herbicidal rating, ZEAMX (ZEAMX (Corn, Field) [7]): 5.0
- ABUTH preemergence herbicidal rating [8]: 7.0
- herbicidal rating, CYPSE [9]: 0.0
- ORYSAT preemergence herbicidal rating (ORYSAT (Rice, Tebonnet) [10]): 3.0
- IPOHE preemergence herbicidal rating [11]: 6.0
- herbicidal rating, ORYSAT (rice tolerance) (ORYSAT (Rice, Tebonnet) [12]): 0.0
- ECHCG preemergence herbicidal rating [13]: 5.0
- SETVI preemergence herbicidal rating (SETVI (Setaria viridis) [14]): 5.0
- Postemergence herbicidal rating, ECHCG [15]: 1.0
- Postemergence herbicidal rating, ABUTH [16]: 6.0
- AMBEL preemergence herbicidal rating [17]: 7.0
- CHEAL preemergence herbicidal rating [18]: 9.0
- CASOB preemergence herbicidal rating [19]: 0.0
- TRZAWR preemergence herbicidal rating [20]: 3.0
- Postemergence herbicidal rating, ORYSAT (ORYSAT (Rice, Tebonnet) [21]): 3.5
- Postemergence herbicidal rating, GLXMAW [22]: 5.0
- herbicidal rating, SAGPY [23]: 0.0
- Postemergence herbicidal rating, GALAP (GALAP (Galium aparine) [24]): 1.0
- GALAP preemergence herbicidal rating (GALAP (Galium aparine) [25]): 0.0
- Postemergence herbicidal rating, AMBEL [26]: 9.0
- Postemergence herbicidal rating, CASOB [27]: 1.0

Reference: patent publication US6706663B2, “Herbicidal 3-heterocyclic substituted benzisothiazole and benzisoxazole compounds” (Wyeth, priority 2000, dated 2004)
